The subject of data set [1] is cord blood CD34^+ cells. The experiment in a line: VCN and engraftment after xenotransplantation of dmPGE2-stimulated, LV-transduced cord blood CD34+ cells into NSG mice. In kind it is in vivo. The protocol:
Cord blood CD34^+ cells were thawed and placed in culture (10^6 cells/mL) in Stem span serum free medium (SFEM) supplemented with 100 ng/mL SCF, 100 ng/mL FLT3L, 50 ng/mL TPO, 50 ng/mL IL-6 for 18 h (pre-stimulation) and subsequently transduced with a lentiviral vector at 10^8 TU/mL for 24 h. Cells were injected into sublethally irradiated, 8 week old NSG mice (1.5-3×10^5 cells per mouse), and vector copy number (VCN) was analysed in the pooled blood or bone marrow of each group of mice at the indicated time-points using primers specific for human cells. 3 replicate experiments are shown. Left graph: Cells were transduced with a PGK.TRAIL LV, and 10 μM dmPGE2 (dmPGE2 group, n=5 mice) or DMSO (Ctrl group, n=5 mice) was added directly after thawing (t=−16 h with respect to vector addition). Middle graph: Cells were transduced with a PGK.TRAIL LV, and 10 μM dmPGE2 (dmPGE2 group n=5) or DMSO (Ctrl group; n=8) was added 120 min before vector addition (t=−2 h). […], and 10 μM dmPGE2 (dmPGE2 group n=5) or DMSO (Ctrl group; n=5) was added 120 min before vector addition (t=−2 h). In all three experiments, the benefit in transduction observed in vitro was stably maintained long-term, up to 18 weeks after xenotransplantation.

The subject of data set [2] is CD34^+ cells from adult bone marrow. The experiment in a line: Lentiviral vector transduction of adult bone marrow CD34+, CD34+CD38- and CD34+CD38+ cells with or without dmPGE2. The data set is classed as cell-based, human. The note with it: CD34^+ or CD34^+CD38^− HSPC from adult bone marrow after dmPGE2 treatment (10 μM). The protocol:
The experiments were carried out as follows: CD34^+ cells from N=3 bone marrow donors (Lonza) were thawed and put into culture in Stem span serum free expansion medium (SFEM) under the following conditions: pre-stimulation in 300 ng/mL SCF, 300 ng/mL FLT3L, 100 ng/mL TPO, 60 ng/mL IL3 for 18 h. Cells were then divided into 3 groups: bulk CD34^+, CD34^+CD38^−, CD34^+CD38^+ (FACS-sorted on a MoFlow cytometer after marking with CD38-APC antibody from BD Bioscience). We then added dmPGE2 (10 μM) or DMSO to the cultures, and pre-stimulated the cells for another 16 h before they were transduced with a GFP-expressing lentiviral vector (LV.PGK.GFP) at 10^8 TU/mL. In vitro culture assays were performed, either as liquid culture for 14 days in IMDM+10% FCS (left) or colony forming cell (CFC) assay (right; plated 800 cells/mL methocult, analysed colony outgrowth after 14 d). Vector copy number was assessed by qPCR as described in Gentner B et al. Nat. Methods 2009; 6:63-66.

For data set [3], the system named is cord blood CD34^+ cells. Kind of data set: Lentiviral vector transduction of cord blood CD34+ cells with or without dmPGE2, VCN by qPCR (in vitro). The data set is classed as cell-based, human. On the procedure:
CD34^+ cells from n=4 cord blood donors (Lonza) were thawed and put into culture in Stem span serum free expansion medium (SFEM) supplemented with 100 ng/mL SCF, 100 ng/mL FLT3L, 50 ng/mL TPO, 50 ng/mL IL6 for 18 h (pre-stimulation), in the presence or absence of 10 μM dmPGE2. After pre-stimulation, cells were incubated with 10^8 TU/mL of a lentiviral vector for 24 h. Cells were then cultured in vitro (n=5 replicates) for 14 days in IMDM+10% FCS before vector copy number (VCN) was measured by qPCR as described in Gentner, B. et al. (2009) Nat.
In general terms: Real-time PCR tracks product formation cycle by cycle.

Data set [4] concerns G-CSF-mobilised CD34+ peripheral blood stem cells. Kind of data set: Lentiviral vector transduction of G-CSF-mobilised CD34+ peripheral blood stem cells with or without dmPGE2 (in vitro). The data set is classed as cell-based, human. The note with it: pre-stimulated with dmPGE2, 18 h. The protocol: N=6 transductions of 3 mobilised peripheral blood donors. Cells were thawed, resuspended in serum-free, commercial culture medium (e.g. CellGro) at a density of 10^6 cells/mL in the presence of the following cytokines: 300 ng/mL SCF, 300 ng/mL FLT3L, 100 ng/mL TPO, 60 ng/mL IL-3, and prestimulated for 18 h, in the absence (control, Ctrl) or presence of dmPGE2. Transduction was performed with lentiviral vectors (3 different batches) at 10^8 TU/mL for 12-24 h. Vector copy number was assessed by qPCR after 14 days of in vitro culture in IMDM and 10% FCS. Relative VCN (normalised to the Control group) is shown.

Data set [5] relates to CD34^+ cells from G-CSF mobilised peripheral blood (mPB). Kind of data set: VCN in long-term repopulating cells after xenotransplantation of mPB CD34+ cells transduced by protocols P0-P4. The data set is classed as in vivo, NSG mice. On the procedure:
CD34^+ cells from G-CSF mobilised peripheral blood (mPB) were thawed and placed in culture (10^6 cells/mL) in CellGro medium supplemented with SCF (300 ng/mL), FLT3L (300 ng/mL), TPO (100 ng/mL) and IL-3 (60 ng/mL). Cells were transduced with third generation lentiviral vectors coding for gp91^phox (vectors suitable for the gene therapy of chronic granulomatous disease) at a dose of 10^8 TU/mL. The different protocols used for ex vivo transduction of mPB CD34+ cells are illustrated in (E) and differ in terms of the presence (P1, P2, P3) or absence (P0, P4) of dmPGE2, the timing of dmPGE2 addition (after thawing: P1, P2; 120 min before transduction: P3) and the duration of culture (24 h: P2, P4 versus 44 h: P0, P1, P3).
(F) 10×10^6 CD34^+ mPB cells from donor 1 were thawed, divided into 4 equal parts and transduced with the SP146/gp91.cogp91^phox. 126T LV from an industry-grade production (Molmed Spa) according to P0, P1, P2 or P3. The outgrowth of 5×10^5 cells put into culture at time zero was injected per mouse (actual numbers: P0 3.66×10^5 per mouse; P1: 4.66×10^5 per mouse; P2: 3.0×10^5 per mouse; P3: 4.86×10^5 per mouse). Mice were euthanised at 20 weeks post transplantation. BM was flushed and pooled from the mice belonging to the same group (P0, P1, P2: n=5 per group; P3: n=3 per group) and depleted for mouse cells. Enriched human cells were then subjected to vector copy number (VCN) analysis using primers specific for human cells (5 technical replicates).
A replicate experiment was performed using mPB CD34^+ cells from a second donor (G). 15×10^6 CD34^+ mPB cells were thawed, divided into 4 equal parts and transduced with the SP146/gp91.gp91^phoxTGT.126T LV (a vector suitable for CGD gene therapy) coming from a lab-grade production according to protocols P0, P1 (44 h−/+dmPGE2) or P4, P2 (24 h−/+dmPGE2). The outgrowth of 9×10^5 cells put into culture at time zero was injected per mouse (actual numbers: P0 10×10^5 per mouse; P1: 8.2×10^5 per mouse; P4: 4.5×10^5 per mouse; P2: 5.3×10^5 per mouse). VCN was analysed on BM cells from each single mouse 13 weeks after transplantation using a qPCR assay specific for human cells.

The test system of another data set is human HSPCs. The experiment in a line: Timing of dmPGE2 stimulation and transducability of human HSPCs by lentiviral vectors. In kind it is cell-based. On the procedure:
This experiment was carried out on 1 cord blood and 1 mobilised peripheral blood donor, the relative VCN is shown (normalised to its respective control).

For the compound `CCCCC(C)(C)[C@H](O)/C=C/[C@H]1[C@H](O)CC(=O)[C@@H]1C/C=C\CCCC(=O)O` [dmPGE2, 16,16-dimethyl prostaglandin E2], the “time over which benefit in transduction was stably maintained after xenotransplantation” value in the data set with cord blood CD34^+ cells [1] (10 μM dmPGE2 at t=−16 h or t=−2 h, three experiments) is “up to 18 weeks”. In the data set on cord blood CD34^+ cells [1] (NSG mice, dmPGE2-treated cells), the engraftment levels entry is listed as “not negatively affected”. For the same compound, the “time over which difference in VCN was maintained after transplantation into NSG mice” value with cord blood CD34^+ cells [1] (after transplantation of dmPGE2-treated cells) is “more than 4 months”. For the same compound, the “increased gene transfer efficiency” value (in data set [2]; with cord blood CD34^+ cells [3] (CD34^+ or CD34^+CD38^− HSPC from cord blood after dmPGE2 treatment)) was 1.5 fold in each case. Further, in the data set on cord blood CD34^+ cells [3] (10 μM dmPGE2 during 18 h pre-stimulation, LV 10^8 TU/mL 24 h, VCN after 14 days culture), the “increase in gene transfer (VCN)” value is 50%. For the same compound, the “transduction by lentiviral vectors” value in data set [4] is recorded as “more efficient transduction”. Further, the “sustained gain in transduction efficiency in long-term repopulating cells” value in data set [5] (P1 condition (dmPGE2 after thawing, 44 h culture), donor 2, BM 13 weeks after transplantation) was “did not result in a sustained gain in transduction efficiency”. Moreover, in data set [5] (P2 (24 h culture with dmPGE2), donor 2, BM 13 weeks after transplantation), the “transduction-promoting effect in long-term repopulating cells” value is listed as “increased transduction well above levels achieved by a 44 h standard protocol”. Moreover, the “increase in VCN into long-term repopulating cells” value in data set [5] (P2 condition (dmPGE2 after thawing, 24 h culture), donor 1, BM 20 weeks post transplantation) is given as ~50%. The “increase in VCN, P3 protocol” value in data set [5] (P3 (dmPGE2 120 min before transduction, 44 h culture), donor 1, BM 20 weeks) is “not statistically significant”. Further, in the data set on human HSPCs (dmPGE2 added 2 h before LV exposure (t=−2 h), 1 cord blood and 1 mobilised peripheral blood donor), the “increase in VCN” value came to 100%. The VCN increase in the data set on human HSPCs (dmPGE2 added at the time of thawing (t=−16 h)) is reported as ~50%.

Source of the values: patent US10617721B2, “Methods for genetic modification of stem cells” (Ospedale San Raffaele S.R.L., priority 2013, dated 2020).
